According to PubChem BioAssay (NCI):
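Interpolation was linear, between the two tested concentrations surrounding the appropriate level; five concentrations were tested over 48 hours in 96-well plates. The concentration for full growth arrest is given as TGI.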

How the values were obtained:
Assay in all cases: growth of human tumour cells (NCI), 48 h
OVCAR-5 ovarian = tested on: OVCAR-5 ovarian
MOLT-4 leukemia = tested on: MOLT-4 leukemia
786-0 renal = tested on: 786-0 renal
TK-10 renal = tested on: TK-10 renal
HCT-15 colon = tested on: HCT-15 colon
HT29 colon = tested on: HT29 colon
SF-295 CNS = tested on: SF-295 CNS
HOP-92 NSCLC = tested on: HOP-92 NSCLC
UACC-62 melanoma = tested on: UACC-62 melanoma
SK-MEL-2 melanoma = tested on: SK-MEL-2 melanoma

| SMILES | TGI (OVCAR-5 ovarian) [µM] | TGI (MOLT-4 leukemia) [µM] | TGI (786-0 renal) [µM] | TGI (TK-10 renal) [µM] | TGI (HCT-15 colon) [µM] | TGI (HT29 colon) [µM] | TGI (SF-295 CNS) [µM] | TGI (HOP-92 NSCLC) [µM] | TGI (UACC-62 melanoma) [µM] | TGI (SK-MEL-2 melanoma) [µM] |
| --- | --- | --- | --- | --- | --- | --- | --- | --- | --- | --- |
| CCOC(=O)c1c[nH]c(C(=O)OCC)c1-c1cccn1-c1ccccc1 | > 100 | 53 | > 100 | > 100 | > 100 | 89.9 | 52.3 | > 100 | 38.9 | 35.5 |
| CC(C)c1cccc(C(C)C)c1NC(=O)C(=O)Cc1nc2ccc([N+](=O)[O-])cc2[nH]c1=O | > 100 | > 100 | > 100 | > 100 | 48.9 | > 100 | > 100 | > 100 | > 100 | > 100 |
| CC1(C)C2CCC3CC(CCC#N)CCC3C21C#N (stereo not given) | > 100 | > 100 | > 100 | > 100 | > 100 | > 100 | > 100 | > 100 | > 100 | > 100 |
| CC(C)Oc1c(C2(c3ccccc3)SCCCS2)c(=O)c1=O | > 100 | > 100 | > 100 | > 100 | > 100 | > 100 | > 100 | > 100 | > 100 | > 100 |
| O=C1CCN2c3ccccc3[C@H]3Cc4cccc(c4[C@@H]2C3)CCO1 | > 100 | 54.5 | > 100 | > 100 | > 100 | > 100 | > 100 | > 100 | > 100 | > 100 |
| C=C1CC(C)(COc2ccc3c(C)c(Cl)c(=O)oc3c2)OC1=O (stereo not given) | 13.4 | 3.24 | 4.65 | 3.06 | 5.86 | 3.48 | 21.4 | 4.41 | 3.01 | 4.47 |
| CCOC(=O)c1c2ccc(/C=C/c3ccccn3)ccc-2c(C(=O)OCC)c1N | > 100 | > 100 | > 100 | > 100 | > 100 | > 100 | > 100 | > 100 | > 100 | > 100 |
| CCOC(=O)C(NC(=O)OCc1ccccc1)C(=O)O (stereo not given) | > 100 | > 100 | > 100 | > 100 | > 100 | > 100 | > 100 | > 100 | > 100 | > 100 |
